Measured values published in article PMC7601397, “Discovery of Sulforaphane as a Potent BACE1 Inhibitor Based on Kinetics and Computational Studies” (Nutrients, 2020).

Target: BACE1 (Homo sapiens, UniProt P56817)
Experiment: FRET enzyme assay (kit); Dixon and Lineweaver-Burk kinetics
Format: biochemical

Sequence of BACE1 (P56817 46-457): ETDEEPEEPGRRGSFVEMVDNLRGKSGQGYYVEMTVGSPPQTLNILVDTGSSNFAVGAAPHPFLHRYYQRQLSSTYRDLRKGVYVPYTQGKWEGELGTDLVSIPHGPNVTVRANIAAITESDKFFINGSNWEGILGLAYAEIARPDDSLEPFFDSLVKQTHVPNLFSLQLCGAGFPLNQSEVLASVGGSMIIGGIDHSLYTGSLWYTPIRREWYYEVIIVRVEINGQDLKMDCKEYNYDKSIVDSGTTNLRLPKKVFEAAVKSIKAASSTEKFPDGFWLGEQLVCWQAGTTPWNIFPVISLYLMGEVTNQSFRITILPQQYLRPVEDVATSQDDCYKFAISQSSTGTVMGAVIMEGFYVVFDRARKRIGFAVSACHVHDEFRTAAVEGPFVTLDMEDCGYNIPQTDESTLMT

C[S+]([O-])CCCCN=C=S (stereo not shown) [Sulforaphane]
Ki: 3.1 µM
